# In patent US20070128217A1 (priority 2003, published 2007):
# B1: SC03-006 (scFv)
# scFv: SMAEVQLVESGGGLVQPGGSLRLSCAASGFTFSGYPMHWVRQAPGKGLEWVAVISYDGSNKYYADSVKGRFTISRDNSKNTLYLQMNSLRAEDTAVYYCAKDGSPRTPSFDYWGQGTLVTVLEGTGGSGGTGSGTGTSELDIQMTQSPHSLSASVGDRVTITCRASQGISNYLAWYQQKPGKVPKLLIYAASTLQSGVPSRFSGSGSGTDFTLTISSLQPEDVGVYYCQQRFRTPVTFGQGTKLEIKRAAA
# B2: SC03-015 (scFv)
# scFv: AMAEVQLVESGGGVVRPGGSLRLSCAASGFTFDDYGMSWVRQAPGKGLEWVSGINWNGGSTGYADSVKGRFTISRDNAKNSLYLQMNSLRAEDTAVYYCARGLSLRPWGQGTLVTVSRGGGGSGGGGSGGGGSSELTQDPAVSVALGQTVRITCQGDSLRSYYASWYQQKPGQAPVLVIYGKNNRPSGIPDRFSGSSSGNTASLTITGAQAEDEADYYCNSRDSSGNHVVFGGGTKLTVLGAAA
# Legend:
# [1] = system: antibodies in sera from SARS patients (sera 1a, 1b, 2, 6, 37, 62, London, SARS-yellow, SARS-green); type: binding, human; parameters: Binding of serum 6 to linear peptides of protein X1 of SARS-CoV Urbani / Binding of serum 37 to linear peptides of protein X1 of SARS-CoV Urbani / Binding of serum 6 to looped/cyclic peptide (PEPSCAN-ELISA) / Binding of serum 37 to looped/cyclic peptide (PEPSCAN-ELISA) / Binding of serum 37 to looped/cyclic peptides of protein X1 of SARS-CoV Urbani / Binding of serum 6 to linear peptides of protein X2 / Binding of serum 37 to linear peptides of protein X2 / Binding of serum 37 to looped/cyclic peptides of protein X2 of SARS-CoV Urbani / Binding of serum 6 to linear peptides of protein M of SARS-CoV Urbani / Binding of serum 37 to linear peptides of protein M of SARS-CoV Urbani / Binding of serum 6 to looped/cyclic peptides of protein M of SARS-CoV Urbani / Binding of serum 37 to looped/cyclic peptides of protein M of SARS-CoV Urbani / Binding of serum 6 to linear peptides of protein X3 of SARS-CoV Urbani / Binding of serum 37 to linear peptides of protein X3 of SARS-CoV Urbani / Binding of serum 37 to looped/cyclic peptides of protein X3 of SARS-CoV Urbani / Binding of serum 6 to linear peptides of protein X4 of SARS-CoV Urbani / Binding of serum 37 to linear peptides of protein X4 of SARS-CoV Urbani / Binding of serum 37 to looped/cyclic peptides of protein X4 of SARS-CoV Urbani / Binding of serum 6 to linear peptides of protein X5 of SARS-CoV Urbani / Binding of serum 37 to linear peptides of protein X5 of SARS-CoV Urbani / Binding of serum 37 to looped/cyclic peptides of protein X5 of SARS-CoV Urbani / Binding of serum 6 to linear peptides of protein N of SARS-CoV Urbani / Binding of serum 37 to linear peptides of protein N of SARS-CoV Urbani / Binding of serum 6 to linear peptide (PEPSCAN-ELISA) / Binding of serum 1a to looped/cyclic peptides of protein N of SARS-CoV Urbani / Binding of serum 1b to looped/cyclic peptides of protein N of SARS-CoV Urbani / Binding of serum 2 to looped/cyclic peptides of protein N of SARS-CoV Urbani / Binding of serum 6 to looped/cyclic peptides of protein N of SARS-CoV Urbani / Binding of serum 37 to looped/cyclic peptides of protein N of SARS-CoV Urbani / Binding of serum 62 to looped/cyclic peptides of protein N of SARS-CoV Urbani / Binding of serum London to looped/cyclic peptides of protein N of SARS-CoV Urbani / Binding of serum SARS-green to looped/cyclic peptides of protein N of SARS-CoV Urbani: unit not given here
# [2] = system: control sera (pooled serum of ten healthy LUMC hospital workers; commercial negative donor pooled serum from the Dutch bloodbank); type: binding, human; parameters: Binding of Control serum LUMC to linear peptides / Binding of Control serum Blood-bank to linear peptides / Binding of Control serum LUMC to looped peptides / Binding of Control Serum Blood-Bank to Looped peptides / Binding of Control serum LUMC to linear peptides of the protein M of SARS-CoV Urbani / Binding of Control serum Blood-bank to linear peptides of the protein M of SARS-CoV Urbani / Binding of Control serum LUMC to looped peptides of the protein M of SARS-CoV Urbani / Binding of Control Serum Blood-Bank to Looped peptides of the protein M of SARS-CoV Urbani: unit not given here
# [3] = system: rabbit serum obtained by immunizing a rabbit with the SARS-CoV strain Frankfurt 1; type: binding; parameters: Binding of a rabbit serum to linear peptides / Binding of a rabbit serum to looped peptides / Rabbit serum linear peptides / Rabbit serum looped peptides / Binding of a rabbit serum to linear peptides of protein N of SARS-CoV Urbani (Rabbit serum linear peptides) / Binding of a rabbit serum to looped/cyclic peptides of protein N of SARS-CoV Urbani (Rabbit serum looped peptides): unit not given here
# [4] = system: recombinant human anti-SARS-CoV antibody 03-018; type: binding; parameters: Binding of antibody 03-018 to linear peptides of the N protein of SARS-CoV Urbani / Binding of antibody 03-018 to looped/cyclic peptides of the N protein of SARS-CoV Urbani: unit not given here
# [5] = molecular target: SARS-CoV preparation (Frankfurt 1 strain) (SARS-CoV strain Frankfurt 1)
molecule,measurement,setting,value
YRRATRRVRGGDGKM,Binding of serum 1a to linear peptides of protein N of SARS-CoV Urbani,[1],0.3
same,Binding of serum 1a to looped/cyclic peptides of protein N of SARS-CoV Urbani,[1],0.2
same,Binding of serum 1b to linear peptides of protein N of SARS-CoV Urbani,[1],0.1
same,Binding of serum 1b to looped/cyclic peptides of protein N of SARS-CoV Urbani,[1],0.1
same,Binding of serum 2 to linear peptides of protein N of SARS-CoV Urbani,[1],0.3
same,Binding of serum 2 to looped/cyclic peptides of protein N of SARS-CoV Urbani,[1],0.2
same,Binding of serum 6 to linear peptides of protein N of SARS-CoV Urbani,[1],0.3
same,Binding of serum 6 to looped/cyclic peptides of protein N of SARS-CoV Urbani,[1],0.1
same,Binding of serum 37 to linear peptides of protein N of SARS-CoV Urbani,[1],0.8
same,Binding of serum 37 to looped/cyclic peptides of protein N of SARS-CoV Urbani,[1],0.4
same,Binding of serum 62 to linear peptides of protein N of SARS-CoV Urbani,[1],0.7
same,Binding of serum 62 to looped/cyclic peptides of protein N of SARS-CoV Urbani,[1],0.3
same,Binding of serum London to linear peptides of protein N of SARS-CoV Urbani,[1],0.5
same,Binding of serum London to looped/cyclic peptides of protein N of SARS-CoV Urbani,[1],0.3
same,Binding of serum SARS-green to linear peptides of protein N of SARS-CoV Urbani,[1],0.4
same,Binding of serum SARS-green to looped/cyclic peptides of protein N of SARS-CoV Urbani,[1],0.2
same,Binding of serum SARS-yellow to linear peptides of protein N of SARS-CoV Urbani,[1],0.6
same,Binding of serum SARS-yellow to looped/cyclic peptides of protein N of SARS-CoV Urbani,[1],0.1
same,Binding of Control Serum Blood-Bank to Looped peptides,[2],0.4
same,Binding of Control serum Blood-bank to linear peptides,[2],0.8
same,Binding of Control serum LUMC to linear peptides,[2],0.7
same,Binding of Control serum LUMC to looped peptides,[2],0.3
same,Binding of a rabbit serum to linear peptides of protein N of SARS-CoV Urbani (Rabbit serum linear peptides),[3],0.2
same,Binding of a rabbit serum to looped/cyclic peptides of protein N of SARS-CoV Urbani (Rabbit serum looped peptides),[3],0.0
same,Binding of antibody 03-018 to linear peptides of the N protein of SARS-CoV Urbani,[4],0.1
same,Binding of antibody 03-018 to looped/cyclic peptides of the N protein of SARS-CoV Urbani,[4],0.2
B1,OD492nm,[5],1.06 OD492nm
B2,OD492nm,[5],0.796 OD492nm
